Experimental data published in patent EP0537070A1, “Compositions containing compound TMK688 and its analogs” (TERUMO KABUSHIKI KAISHA, priority 1991, dated 1993).

Experiment: Solubility in solvents (qualitative)
Type: physicochemical

CCOC(=O)Oc1ccc(/C=C/C=C/C(=O)NCCN2CCC(OC(c3ccccc3)c3ccccc3)CC2)cc1OC [TMK 688]
solubility (in acetone): can easily be dissolved
solubility (in acetonitrile): can be well dissolved
solubility (in dichloroethane): can easily be dissolved
solubility (in ethanol): cannot be dissolved well
solubility (in water): can hardly be dissolved
